Source: PMC5601738, “Facile total synthesis of lysicamine and the anticancer activities of the Ru^II, Rh^III, Mn^II and Zn^II complexes of lysicamine” (Oncotarget, 2017)

Key:
caspase-9 in HepG2 cells = assay: Activated caspase-9 by flow cytometry; details: HepG2, at IC50, 24 h; control […]
Procedure: After treated, the cells were collected, and suspended in h at 37 °C in 5% CO2 incubator. The cells were harvested
with annexin V-FITC and PI for 1 h at room temperature cytometer equipped. The results were represented as the
in the dark and immediately analyzed by flow cytometry. percent change on the activity comparing with the control.
Caspase- 3, -8 and -9 activity determinations by our previously report [3].

[1] = test system: apoptosis genes in HepG2 cells; assay: RT-qPCR array, human apoptosis PCR array (PAHS-012Z); type: cell-based; details: Hep-G2 cells, 14 μM, 24 h, vs control

COc1cc2ccnc3c2c(c1OC)-c1ccccc1C3=O.COc1cc2ccnc3c2c(c1OC)-c1ccccc1C3=O.COc1cc2ccnc3c2c(c1OC)-c1ccccc1C3=O.ClC(Cl)Cl.ClC(Cl)Cl.ClC(Cl)Cl.[Mn+2].[O-][Cl+3]([O-])([O-])[O-].[O-][Cl+3]([O-])([O-])[O-] [Complex 3, [Mn(LY)3](ClO4)2·3CHCl3]
proportion of activated caspase-9 cells (caspase-9 in HepG2 cells): 17.0%
Fold up/down-regulation, ABL1 [1]: 1.14
Fold up/down-regulation, ACTB [1]: -3.23
Fold up/down-regulation, AIFM1 [1]: 1.39
Fold up/down-regulation, AKT1 [1]: -1.50
Fold up/down-regulation, APAF1 [1]: -1.08
Fold up/down-regulation, B2M [1]: 1.32
Fold up/down-regulation, BAD [1]: -1.23
Fold up/down-regulation, BAG1 [1]: -3.76
Fold up/down-regulation, BAG3 [1]: 1.12
Fold up/down-regulation, BAK1 [1]: 2.10
Fold up/down-regulation, BAX [1]: 1.03
Fold up/down-regulation, BCL2 [1]: 1.08
Fold up/down-regulation, BCL2A1 [1]: 15.30
Fold up/down-regulation, BCL2L1 [1]: -1.97
Fold up/down-regulation, BCL2L2 [1]: 1.01
Fold up/down-regulation, BCL2L10 [1]: 1.21
Fold up/down-regulation, BCL2L11 [1]: 2.71
Fold up/down-regulation, BCL10 [1]: 1.24
Fold up/down-regulation, BFAR [1]: 1.36
Fold up/down-regulation, BID [1]: -1.24
Fold up/down-regulation, BIK [1]: 3.02
Fold up/down-regulation, BIRC2 [1]: 1.65
Fold up/down-regulation, BIRC3 [1]: -1.79
Fold up/down-regulation, BIRC5 [1]: -1.29
Fold up/down-regulation, BIRC6 [1]: 1.22
Fold up/down-regulation, BNIP2 [1]: 1.48
Fold up/down-regulation, BNIP3 [1]: 1.82
Fold up/down-regulation, BNIP3L [1]: 2.06
Fold up/down-regulation, BRAF [1]: 1.10
Fold up/down-regulation, CASP1 [1]: 1.61
Fold up/down-regulation, CASP2 [1]: -1.21
Fold up/down-regulation, CASP3 [1]: 1.46
Fold up/down-regulation, CASP4 [1]: 1.39
Fold up/down-regulation, CASP5 [1]: 1.47
Fold up/down-regulation, CASP6 [1]: 1.46
Fold up/down-regulation, CASP7 [1]: 1.23
Fold up/down-regulation, CASP8 [1]: 1.13
Fold up/down-regulation, CASP9 [1]: 3.47
Fold up/down-regulation, CASP10 [1]: -1.45
Fold up/down-regulation, CASP14 [1]: 8.51
Fold up/down-regulation, CD27 [1]: 4.42
Fold up/down-regulation, CD40 [1]: -1.09
Fold up/down-regulation, CD40LG [1]: 1.16
Fold up/down-regulation, CD70 [1]: -1.62
Fold up/down-regulation, CFLAR [1]: 1.19
Fold up/down-regulation, CIDEA [1]: 2.51
Fold up/down-regulation, CIDEB [1]: -1.33
Fold up/down-regulation, CRADD [1]: 1.01
Fold up/down-regulation, CYCS [1]: 2.27
Fold up/down-regulation, DAPK1 [1]: -1.22
Fold up/down-regulation, DFFA [1]: 1.10
Fold up/down-regulation, DIABLO [1]: 1.68
Fold up/down-regulation, FADD [1]: 1.24
Fold up/down-regulation, FAS [1]: -1.45
Fold up/down-regulation, FASLG [1]: 1.37
Fold up/down-regulation, GADD45A [1]: 3.98
Fold up/down-regulation, GAPDH [1]: -1.17
Fold up/down-regulation, HPRT1 [1]: -1.87
Fold up/down-regulation, HRK [1]: 49.72
Fold up/down-regulation, IGF1R [1]: -2.51
Fold up/down-regulation, IL10 [1]: 1.11
Fold up/down-regulation, LTA [1]: -1.40
Fold up/down-regulation, LTBR [1]: -1.24
Fold up/down-regulation, MCL1 [1]: 2.15
Fold up/down-regulation, NAIP [1]: -1.05
Fold up/down-regulation, NFKB1 [1]: -1.85
Fold up/down-regulation, NOD1 [1]: -1.30
Fold up/down-regulation, NOL3 [1]: -1.07
Fold up/down-regulation, PYCARD [1]: 2.80
Fold up/down-regulation, RIPK2 [1]: 1.45
Fold up/down-regulation, RPLP0 [1]: 1.17
Fold up/down-regulation, TNF [1]: 16.66
Fold up/down-regulation, TNFRSF1A [1]: -1.06
Fold up/down-regulation, TNFRSF1B [1]: -1.05
Fold up/down-regulation, TNFRSF9 [1]: 110.29
Fold up/down-regulation, TNFRSF10A [1]: -1.02
Fold up/down-regulation, TNFRSF10B [1]: 1.11
Fold up/down-regulation, TNFRSF11B [1]: 3.22
Fold up/down-regulation, TNFRSF21 [1]: 3.02
Fold up/down-regulation, TNFRSF25 [1]: 2.68
Fold up/down-regulation, TNFSF8 [1]: 3.25
Fold up/down-regulation, TNFSF10 [1]: 1.70
Fold up/down-regulation, TP53 [1]: -1.05
Fold up/down-regulation, TP53BP2 [1]: 1.53
Fold up/down-regulation, TP73 [1]: 1.38
Fold up/down-regulation, TRADD [1]: 1.11
Fold up/down-regulation, TRAF2 [1]: -1.21
Fold up/down-regulation, TRAF3 [1]: 1.01
Fold up/down-regulation, XIAP [1]: 1.26
FoldChange, ABL1 relative expression [1]: 1.14
FoldChange, ACTB relative expression [1]: 0.31
FoldChange, AIFM1 relative expression [1]: 1.39
FoldChange, AKT1 relative expression [1]: 0.67
FoldChange, APAF1 relative expression [1]: 0.92
FoldChange, B2M relative expression [1]: 1.32
FoldChange, BAD relative expression [1]: 0.81
FoldChange, BAG1 relative expression [1]: 0.27
FoldChange, BAG3 relative expression [1]: 1.12
FoldChange, BAK1 relative expression [1]: 2.10
FoldChange, BAX relative expression [1]: 1.03
FoldChange, BCL2A1 relative expression [1]: 15.30
FoldChange, BCL2L1 relative expression [1]: 0.51
FoldChange, BCL2L2 relative expression [1]: 1.01
FoldChange, BCL2L10 relative expression [1]: 1.21
FoldChange, BCL2L11 relative expression [1]: 2.71
FoldChange, BCL2 relative expression [1]: 1.08
FoldChange, BCL10 relative expression [1]: 1.24
FoldChange, BFAR relative expression [1]: 1.36
FoldChange, BID relative expression [1]: 0.80
FoldChange, BIK relative expression [1]: 3.02
FoldChange, BIRC2 relative expression [1]: 1.65
FoldChange, BIRC3 relative expression [1]: 0.56
FoldChange, BIRC5 relative expression [1]: 0.77
FoldChange, BIRC6 relative expression [1]: 1.22
FoldChange, BNIP2 relative expression [1]: 1.48
FoldChange, BNIP3L relative expression [1]: 2.06
FoldChange, BNIP3 relative expression [1]: 1.82
FoldChange, BRAF relative expression [1]: 1.10
FoldChange, CASP1 relative expression [1]: 1.61
FoldChange, CASP2 relative expression [1]: 0.83
FoldChange, CASP3 relative expression [1]: 1.46
FoldChange, CASP4 relative expression [1]: 1.39
FoldChange, CASP5 relative expression [1]: 1.47
FoldChange, CASP6 relative expression [1]: 1.46
FoldChange, CASP7 relative expression [1]: 1.23
FoldChange, CASP8 relative expression [1]: 1.13
FoldChange, CASP9 relative expression [1]: 3.47
FoldChange, CASP10 relative expression [1]: 0.69
FoldChange, CASP14 relative expression [1]: 8.51
FoldChange, CD27 relative expression [1]: 4.42
FoldChange, CD40LG relative expression [1]: 1.16
FoldChange, CD40 relative expression [1]: 0.92
FoldChange, CD70 relative expression [1]: 0.62
FoldChange, CFLAR relative expression [1]: 1.19
FoldChange, CIDEA relative expression [1]: 2.51
FoldChange, CIDEB relative expression [1]: 0.75
FoldChange, CRADD relative expression [1]: 1.01
FoldChange, CYCS relative expression [1]: 2.27
FoldChange, DAPK1 relative expression [1]: 0.82
FoldChange, DFFA relative expression [1]: 1.10
FoldChange, DIABLO relative expression [1]: 1.68
FoldChange, FADD relative expression [1]: 1.24
FoldChange, FAS relative expression [1]: 0.69
FoldChange, FASLG relative expression [1]: 1.37
FoldChange, GADD45A relative expression [1]: 3.98
FoldChange, GAPDH relative expression [1]: 0.86
FoldChange, HPRT1 relative expression [1]: 0.54
FoldChange, HRK relative expression [1]: 49.72
FoldChange, IGF1R relative expression [1]: 0.40
FoldChange, IL10 relative expression [1]: 1.11
FoldChange, LTA relative expression [1]: 0.71
FoldChange, LTBR relative expression [1]: 0.81
FoldChange, MCL1 relative expression [1]: 2.15
FoldChange, NAIP relative expression [1]: 0.95
FoldChange, NFKB1 relative expression [1]: 0.54
FoldChange, NOD1 relative expression [1]: 0.77
FoldChange, NOL3 relative expression [1]: 0.93
FoldChange, PYCARD relative expression [1]: 2.80
FoldChange, RIPK2 relative expression [1]: 1.45
FoldChange, RPLP0 relative expression [1]: 1.17
FoldChange, TNF relative expression [1]: 16.66
FoldChange, TNFRSF1A relative expression [1]: 0.94
FoldChange, TNFRSF1B relative expression [1]: 0.96
FoldChange, TNFRSF9 relative expression [1]: 110.29
FoldChange, TNFRSF10A relative expression [1]: 0.98
FoldChange, TNFRSF10B relative expression [1]: 1.11
FoldChange, TNFRSF11B relative expression [1]: 3.22
FoldChange, TNFRSF21 relative expression [1]: 3.02
FoldChange, TNFRSF25 relative expression [1]: 2.68
FoldChange, TNFSF8 relative expression [1]: 3.25
FoldChange, TNFSF10 relative expression [1]: 1.70
FoldChange, TP53BP2 relative expression [1]: 1.53
FoldChange, TP53 relative expression [1]: 0.95
FoldChange, TP73 relative expression [1]: 1.38
FoldChange, TRADD relative expression [1]: 1.11
FoldChange, TRAF2 relative expression [1]: 0.82
FoldChange, TRAF3 relative expression [1]: 1.01
FoldChange, XIAP relative expression [1]: 1.26
